Measurements from patent US7718808B2, “Thiazole derivatives” (Kyowa Hakko Kirin Co., Ltd., priority 2003, dated 2010).

Legend:
[1] = target: T1, Rat Adenosine A2A Receptor (Rattus norvegicus, UniProt P30543); test: Adenosine A2A receptor binding test (3H-CGS21680 binding, rat corpus striatum); details: test compound 10^−7 mol/L, 25° C., 120 minutes, read-out: Rat Adenosine A2A Receptor Binding Inhibition rate (%) (10^−7 mol/L)
T1 construct: tissue Nippon SLC (animals); host or cells: rat (SD) corpus striatum membrane homogenate
T1 sequence (P30543 whole entry): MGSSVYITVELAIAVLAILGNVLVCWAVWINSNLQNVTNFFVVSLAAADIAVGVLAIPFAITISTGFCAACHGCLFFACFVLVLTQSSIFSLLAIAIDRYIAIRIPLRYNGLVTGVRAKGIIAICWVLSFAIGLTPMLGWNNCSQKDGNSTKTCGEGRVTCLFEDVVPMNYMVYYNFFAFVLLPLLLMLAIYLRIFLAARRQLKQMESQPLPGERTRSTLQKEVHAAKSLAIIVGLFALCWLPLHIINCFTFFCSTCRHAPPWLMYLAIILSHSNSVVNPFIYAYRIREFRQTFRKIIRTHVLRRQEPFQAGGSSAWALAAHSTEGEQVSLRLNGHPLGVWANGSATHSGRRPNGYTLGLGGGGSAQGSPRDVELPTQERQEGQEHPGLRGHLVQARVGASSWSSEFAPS
Method: This test was carried but in a similar manner to a Bruns et al's method (Molecular Pharmacology, Vol. 29, p. 331, 1986).
Corpus striatum of rats (SD rat, by Nippon SLC) was suspended in 50 mL of an ice-cooled 50 mmol/L tris(hydroxymethyl)aminomethane hydrochloride (Tris-HCl) buffer (pH 7.7) using a polytron homogenizer (by Kinematica). The resulting homogenate was centrifuged (48,000×g, 20 minutes), and the resulting precipitate was again suspended by adding the same amount of a 50 mmol/L Tris-HCl buffer, followed by centrifugation under the same condition. The resulting final precipitate was suspended by adding a 50 mmol/L Tris-HCl buffer [containing 10 mmol/L magnesium chloride, adenosine deaminase 0.02 units/mg tissue (by Sigma)] so that the tissue concentration was 5 mg (wet weight)/mL.
To 100 μL of the above purified tissue suspension, were added 80 μL (final concentration […]) of tritium-labeled CGS-21680 {^3H-2-[p-(2-carboxyethyl)phenethylamino]-5′-(N-ethylcarboxamido)-adenosine: 40 curies/mmol; by New England Nuclear [The Journal of Pharmacology and Experimental Therapeutics, Vol. 251, p. 888, 1989]} and 20 μL of a test compound solution (10^−7 mol/L; a solution of a test compound in DMSO was diluted with Tris-HCl buffer). The resulting mixture was allowed to stand at 25° C. for 120 minutes, followed by rapid suction filtration through a glass fiber paper filter (GF/C; by Whatman). The filter was immediately washed three times with 200 μL of an ice-cooled 50 mmol/L Tris-HCl buffer. The glass fiber paper filter was transferred into a vial, Microscinti (by Perkin Elmer) was added thereto, and the radioactivity level was measured with Topcount (by Perkin Elmer).
The inhibition rate of the test compound to the adenosine A2A receptor binding (^3H-CGS21680 binding) was calculated according to the following formula.
Amount of total binding means the ^3H-CGS21680 binding radioactivity content in the absence of the test compound. Amount of non-specific binding means the ^3H-CGS21680 binding radioactivity content in the presence of 100 μmol/L cyclopentyladenosine (CPA; by Sigma). Amount of binding in the presence of test compound means the ^3H-CGS21680 binding radioactivity content in the presence of 10^−7 mol/L of the test compound.

[2] = test system: MPTP-treated common marmoset; test: Effect in Parkinson's disease model (MPTP-treated common marmoset), motor disability score; type: in vivo; details: oral administration, 10 mg/kg; MPTP-treated common marmosets; scored at 30 minute intervals for 8 hours
From the text: Parkinson's disease is a disorder based on the degeneration and lack of dopaminergic neurons in the nigro-striatal pathway. In the primates, treatment with a dopamine neurotoxin, that is MPTP, causes selective degeneration and lack of the dopaminergic neurons in the nigro-striatal pathway and causes a symptom such as akinesia and muscular rigidity. The MPTP-treated primate is known as a Parkinson's disease model (Proceedings of the National Academy of Science USA, Vol. 80, p. 4546, 1983). Also, common marmoset belongs to Anthropoidea, and is known to have parkinsonism caused by MPTP like others of Anthropoidea (Neuroscience Letter, Vol. 57, p. 37, 1985).
The experiment was carried out using four male and female common marmosets of 2 or 3 years old (body weight, 300 to 375 g, by Nippon Clea) per group. […] The motor disability of the animals before the administration of the test compound was scored, and this was compared with the motor disability score after orally administration of the test compound (Compound 1) in a dose of 10 mg/kg. As, the parkinsonian symptoms, the motor disabilities were scored at intervals of 30 minutes for 8 hours, by observation through a one-way viewing window. The spontaneous locomotor activity was measured at intervals of 30 minutes for 12 hours by a computer-controlled automatic measuring apparatus. […]

SMILES | inhibition at 0.1 µM [1] | remission of the parkinsonian symptoms (motor disability score before vs after administration) [2] | melting point
O=C(Nc1nc(-c2ccco2)c(-c2ccncc2)s1)c1ccncc1 [Compound 1, N-[4-(2-Furyl)-5-(4-pyridyl)thiazol-2-yl]pyridine-4-carboxamide] | 90% | effective for remission of the parkinsonian symptoms | 
O=C(Nc1nc(-c2ccco2)c(C(=O)C2CCOCC2)s1)c1ccc(Cl)nc1 [Compound 502, 2-Chloro-N-[4-(2-furyl)-5-(tetrahydropyran-4-ylcarbonyl)thiazol-2-yl]pyridine-5-carboxamide] | 90% |  | 233 to 235 °C
O=C(Nc1nc(-c2ccco2)c(C(=O)C2CCOCC2)s1)c1ccco1 [Compound 511, N-[4-(2-Furyl)-5-(tetrahydropyran-4-ylcarbonyl)thiazol-2-yl]furan-2-carboxamide] | 88% |  | 196 to 198 °C
N#Cc1ccc(C(=O)Nc2nc(-c3ccco3)c(C(=O)C3CCOCC3)s2)o1 [Compound 515, 5-Cyano-N-[4-(2-furyl)-5-(tetrahydropyran-4-ylcarbonyl)thiazol-2-yl]furan-2-carboxamide] | 95% |  | 222 to 223 °C
